Experimental data published in PubChem BioAssay AID1963826 (Molecular Pharmacology Branch, DTP, NCI, 2024).

Tested on: 926638-142-R-J1-PDC complex spheroid viability
Experiment: Anticancer human tumor 926638-142-R-J1-PDC patient-derived endometrial carcinoma cell line growth inhibition [POLQ]
Details: for IC50: curve of first compound; for viability, T/C: stronger effect = lower value
Outline: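 Growth inhibition in 3D: complex spheroids (tumor PDC, HUVEC, MSC) treated with POLQ inhibitor combinations; where Cmax unknown, highest tested concentration 10 microM, except SN-38 at 1 microM.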

[1] = second compound 0.0316 µM, first compound 0.0316 µM
[2] = second compound 0.0316 µM, first compound 0.1 µM
[3] = second compound 0.0316 µM, first compound 0.316 µM
[4] = second compound 0.0316 µM, first compound 1 µM
[5] = second compound 0.0316 µM, first compound 3.16 µM
[6] = second compound 0.0316 µM, first compound 10 µM
[7] = second compound 0.1 µM, first compound 0.0316 µM
[8] = second compound 0.1 µM, first compound 0.1 µM
[9] = second compound 0.1 µM, first compound 0.316 µM
[10] = second compound 0.1 µM, first compound 1 µM
[11] = second compound 0.1 µM, first compound 3.16 µM
[12] = second compound 0.1 µM, first compound 10 µM
[13] = second compound 0.316 µM, first compound 0.0316 µM
[14] = second compound 0.316 µM, first compound 0.1 µM
[15] = second compound 0.316 µM, first compound 0.316 µM
[16] = second compound 0.316 µM, first compound 1 µM
[17] = second compound 0.316 µM, first compound 3.16 µM
[18] = second compound 0.316 µM, first compound 10 µM
[19] = second compound 1 µM, first compound 0.0316 µM
[20] = second compound 1 µM, first compound 0.1 µM
[21] = second compound 1 µM, first compound 0.316 µM
[22] = second compound 1 µM, first compound 1 µM
[23] = second compound 1 µM, first compound 3.16 µM
[24] = second compound 1 µM, first compound 10 µM
[25] = second compound 3.16 µM, first compound 0.0316 µM
[26] = second compound 3.16 µM, first compound 0.1 µM
[27] = second compound 3.16 µM, first compound 0.316 µM
[28] = second compound 3.16 µM, first compound 1 µM
[29] = second compound 3.16 µM, first compound 3.16 µM
[30] = second compound 3.16 µM, first compound 10 µM
[31] = second compound 10 µM, first compound 0.0316 µM
[32] = second compound 10 µM, first compound 0.1 µM
[33] = second compound 10 µM, first compound 0.316 µM
[34] = second compound 10 µM, first compound 1 µM
[35] = second compound 10 µM, first compound 3.16 µM
[36] = second compound 10 µM, first compound 10 µM
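Note: spheroids exposed to drugs for one week before readout.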
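Throughout, for viability, T/C: percent viability relative to DMSO vehicle control wells set as 100%.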

`C#Cc1c(F)ccc2cc(O)cc(-c3ncc4c(N5CC6CCC(C5)N6)nc(OCC56CCCN5CC(F)C6)nc4c3F)c12` (stereo unspecified) + Cc1cccc(N(C)C(=O)C2C(O)CCN2c2nc(C)cc(C(F)(F)F)c2C#N)c1 gave an IC50 (second compound 0.0316 µM) of over 10 µM, an IC50 (second compound 0.1 µM) of over 10 µM and an IC50 (second compound 0.316 µM) of over 10 µM. For the same compound, the IC50 (second compound 1 µM) was over 10 µM, the IC50 (second compound 3.16 µM) was over 10 µM and the IC50 (second compound 10 µM) was over 10 µM. For the same compound, the viability, T/C [1] was 90.9%, the viability, T/C [2] was 76.7% and the viability, T/C [3] was 69.9%. The viability, T/C [4] was 63.8%, the viability, T/C [5] was 58.3% and the viability, T/C [6] was 56.9%. It also gave a viability, T/C [7] of 87.2%, a viability, T/C [8] of 96.2% and a viability, T/C [9] of 84.6%. It also gave a viability, T/C [10] of 71.9%, a viability, T/C [11] of 60.5% and a viability, T/C [12] of 63.9%. It also gave a viability, T/C [13] of 86.2%, a viability, T/C [14] of 75.1% and a viability, T/C [15] of 78.2%. It also gave a viability, T/C [16] of 71.8%, a viability, T/C [17] of 54% and a viability, T/C [18] of 61.7%. It also gave a viability, T/C [19] of 95.2%, a viability, T/C [20] of 76% and a viability, T/C [21] of 66.9%. The viability, T/C [22] was 76.2%, the viability, T/C [23] was 70.9% and the viability, T/C [24] was 52.5%. It also gave a viability, T/C [25] of 81.1%, a viability, T/C [26] of 84.3% and a viability, T/C [27] of 89.2%. The viability, T/C [28] was 58.5%, the viability, T/C [29] was 60.1% and the viability, T/C [30] was 53.5%. The viability, T/C [31] was 84.8%, the viability, T/C [32] was 79% and the viability, T/C [33] was 67.2%. It also gave a viability, T/C [34] of 71.8%, a viability, T/C [35] of 58.4% and a viability, T/C [36] of 66.5%.

Compound `CC1COCCN1c1cc(C2(O)CC3CCC(C2)O3)c2cnn(-c3ccn[nH]3)c2n1` (stereo unspecified) + Cc1cccc(N(C)C(=O)C2C(O)CCN2c2nc(C)cc(C(F)(F)F)c2C#N)c1 has an IC50 (second compound 0.0316 µM) of 0.173 µM, an IC50 (second compound 0.1 µM) of 0.22 µM and an IC50 (second compound 0.316 µM) of 0.194 µM. The IC50 (second compound 1 µM) was 0.201 µM, the IC50 (second compound 3.16 µM) was 0.143 µM and the IC50 (second compound 10 µM) was 0.198 µM. For the same compound, the viability, T/C [1] was 102%, the viability, T/C [2] was 64.7% and the viability, T/C [3] was 34.5%. The viability, T/C [4] was 13.3%, the viability, T/C [5] was 8.43% and the viability, T/C [6] was 2.27%. The viability, T/C [7] was 100%, the viability, T/C [8] was 79.8% and the viability, T/C [9] was 35.8%. For the same compound, the viability, T/C [10] was 12.2%, the viability, T/C [11] was 6.79% and the viability, T/C [12] was 1.49%. It also gave a viability, T/C [13] of 88.7%, a viability, T/C [14] of 67.5% and a viability, T/C [15] of 37.9%. For the same compound, the viability, T/C [16] was 11.6%, the viability, T/C [17] was 9.91% and the viability, T/C [18] was 1.44%. The viability, T/C [19] was 85.7%, the viability, T/C [20] was 71% and the viability, T/C [21] was 35.8%. The viability, T/C [22] was 14%, the viability, T/C [23] was 7.71% and the viability, T/C [24] was 1.6%. The viability, T/C [25] was 85.9%, the viability, T/C [26] was 61% and the viability, T/C [27] was 26.1%. For the same compound, the viability, T/C [28] was 13.9%, the viability, T/C [29] was 7.14% and the viability, T/C [30] was 1.53%. It also gave a viability, T/C [31] of 97.7%, a viability, T/C [32] of 72.9% and a viability, T/C [33] of 33.5%. For the same compound, the viability, T/C [34] was 13.2%, the viability, T/C [35] was 6.57% and the viability, T/C [36] was 1.3%.

In the case of `CCc1cc2c(N3CCc4c(cc(Cn5ccnc5)cc4-c4cn(C)nc4C(F)(F)F)C3=O)cc(C)nc2c(OC)n1` + Cc1cccc(N(C)C(=O)C2C(O)CCN2c2nc(C)cc(C(F)(F)F)c2C#N)c1, the IC50 (second compound 0.0316 µM) is reported as 0.397 µM, the IC50 (second compound 0.1 µM) is reported as 0.658 µM and the IC50 (second compound 0.316 µM) is reported as 0.7 µM. It also gave an IC50 (second compound 1 µM) of 0.554 µM, an IC50 (second compound 3.16 µM) of 0.467 µM and an IC50 (second compound 10 µM) of 0.257 µM. For the same compound, the viability, T/C [1] was 77.9%, the viability, T/C [2] was 72% and the viability, T/C [3] was 45.9%. It also gave a viability, T/C [4] of 44.4%, a viability, T/C [5] of 31.8% and a viability, T/C [6] of 26.9%. It also gave a viability, T/C [7] of 90.2%, a viability, T/C [8] of 71% and a viability, T/C [9] of 59.3%. The viability, T/C [10] was 44%, the viability, T/C [11] was 38.1% and the viability, T/C [12] was 31.4%. The viability, T/C [13] was 94.8%, the viability, T/C [14] was 65.3% and the viability, T/C [15] was 56.3%. It also gave a viability, T/C [16] of 48.4%, a viability, T/C [17] of 43.2% and a viability, T/C [18] of 22.5%. For the same compound, the viability, T/C [19] was 69%, the viability, T/C [20] was 80.6% and the viability, T/C [21] was 58.1%. It also gave a viability, T/C [22] of 39.8%, a viability, T/C [23] of 34.2% and a viability, T/C [24] of 26.6%. For the same compound, the viability, T/C [25] was 91.9%, the viability, T/C [26] was 66.2% and the viability, T/C [27] was 56.4%. The viability, T/C [28] was 38%, the viability, T/C [29] was 44% and the viability, T/C [30] was 27.1%. The viability, T/C [31] was 66.5%, the viability, T/C [32] was 64.7% and the viability, T/C [33] was 45.1%. The viability, T/C [34] was 37.1%, the viability, T/C [35] was 36% and the viability, T/C [36] was 26.8%.
